Source: patent US6756409B2, “Phenoxyphenyl alkanesulphonates” (priority 2001, dated 2004)

Legend:
[1] = biological target: T1, rat CB1 receptor (Rattus norvegicus, UniProt P20272); test: Rat CB1 luciferase reporter gene test; assay type: cell-based; conditions: rat CHOCB1 reporter cell line, forskolin-stimulated luciferase activity
T1 construct: expressed in transfected cells; host or cells: CHO (CHOluc9-derived reporter line, by analogy with the CB2 line)
Experimental: 1. Rats CB1 Luciferase Reporter Gene Test
Stock cultures of a rat CHOCB1 reporter cell line were prepared by the method described in WO-A-98/37061, page 55 et seq.
The following test protocol was used for the substance screening: the stock cultures were cultivated in 50% of Dulbecco's modified Eagle medium/50% F-12 (DMEM/F12) with 10% FCS at 37° C. under 10% CO2 and split 1:10 after 2 to 3 days in each case. Test cultures were seeded with 5000 cells per well in 96-well plates and cultured at 37° C. for 70 hours. The cultures were then cautiously washed with phosphate-buffered saline and reconstituted with serum-free Ultra-CHO medium (Bio-Whittaker). The substances dissolved in DMSO were diluted 1× in medium and pipetted into the test cultures (maximum DMSO final concentration in test mixture: 0.5%). 20 minutes later, forskolin was added and the cultures were then incubated in an incubator at 37° C. for 3 hours. […] Immediately thereafter luciferase substrate solution (2.5 mM ATP, 0.5 mM luciferin, 0.1 mM coenzyme A, 10 mM tricine, 1.35 mM MgSO4, 15 mM DTT, pH 7.8) was added and briefly shaken, and the luciferase activity was measured using a Hamamatsu camera system. […]
The IC50 values were calculated using the GraphPadPrism program (Hill equation, specifically: one-site competition).

[2] = Microsomal stability investigations; assay type: in vitro ADME; conditions: maximum possible bioavailability extrapolated from rat liver microsomes, 37° C., 15 minutes
Experimental: 4. Microsomal Stability Investigations
The metabolic stability of the compounds according to the invention can be measured in rat liver microsomes (in analogy to J. Pharmacol. Exp. Ther. 1997, 283, 46-58).
To determine the microsomal stability and extrapolate to the maximum possible bioavailability (Fmax) owing to the first-pass effect in the liver (phase 1 reactions), the substance is incubated in low concentration with microsomal protein, with addition of cofactors, at 37° C. for 15 minutes.
The incubation and the sampling take place on a modified automatic pipettor from Canberra Packard.

[3] = Pharmacokinetics in the rat; assay type: in vivo; conditions: for AUCstand / Cmax,stand: standardized to 1 mg/kg; for half-life: terminal half-life
Experimental: 5. Pharmacokinetics in the Rat
The substance is infused through a Braunüle in a lateral tail vein directly into the blood stream over 15 minutes. A calibrated 20 ml syringe is used for accurate administration of the chosen dose and volume. A Braun Melsungen No. 152440/1 pump is used for the infusion.
The substance is administered as bolus by gavage.
Blood samples are collected from catheterized animals (jugular vein) in heparinized tubes. The blood is centrifuged and the plasma is prepared in a suitable manner for analysis (LC-MS-MS). The plasma is stored at <−15° C. until analysed.
AUCstand: the area, standardized to a dose of 1 mg/kg, under the plasma concentration/time curve;
Cmax,stand: the maximum plasma concentration after a single administration, standardized to a dose of 1 mg/kg;
tmax: the time at which the maximum plasma concentration is reached after a single dose;
t1/2: terminal half-life;
F: bioavailability; in this case the percentage, compared with i.v. administration, of the dose which is systemically available;
VSS: apparent volume of distribution at the steady state.

[4] = tested on: chronic mechanical hyperalgesia in axotomized rats; test: Axotomy of sciatic branches in the rat (chronic pain model); assay type: in vivo; conditions: orally, acute administration, 60 minutes before the test
Experimental: 7. Axotomy of Sciatic Branches in the Rat (Chronic Pain Model)
Under pentobarbital anaesthesia, the trifurcation of a sciatic nerve is exposed, and the peroneal and tibial branches are axotomized after the nerves have been ligated proximal of the axotomy site. Control animals undergo a sham operation. After the operation, the axotomized animals develop chronic mechanical hyperalgesia. This hyperalgesia is tested, comparing with sham-operated animals, with the aid of a pressure transducer (electronic von Frey anesthesiometer, IITC Inc.—Life Science Instruments, Woodland Hills, Calif., USA).
The substance is administered by various administration routes (i.v., i.p., orally, i.t., i.c.v., transdermally) at various times before the pain testing.

[5] = biological target: T2, CB1 receptor (Rattus norvegicus, UniProt P20272); test: Rat hypothermia agonism test; assay type: in vivo; conditions: oral administration
T2 construct: from tissue; host or cells: whole animal (rat), in vivo
T2 sequence (P20272 whole entry): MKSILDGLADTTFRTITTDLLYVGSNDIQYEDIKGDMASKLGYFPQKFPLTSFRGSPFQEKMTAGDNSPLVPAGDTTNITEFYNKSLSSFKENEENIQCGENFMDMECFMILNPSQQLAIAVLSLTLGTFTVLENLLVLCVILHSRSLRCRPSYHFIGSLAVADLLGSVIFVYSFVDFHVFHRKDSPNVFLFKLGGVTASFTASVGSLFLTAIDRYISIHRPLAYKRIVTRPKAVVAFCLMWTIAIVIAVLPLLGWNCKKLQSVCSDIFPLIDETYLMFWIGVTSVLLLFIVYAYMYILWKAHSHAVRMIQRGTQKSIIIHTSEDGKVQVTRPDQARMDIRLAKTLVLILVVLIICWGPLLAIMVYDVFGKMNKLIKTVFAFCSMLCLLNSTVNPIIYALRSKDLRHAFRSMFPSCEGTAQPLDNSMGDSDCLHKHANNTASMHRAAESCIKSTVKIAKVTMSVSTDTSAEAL
Experimental: The in vivo agonistic effect on the CB1 receptor was examined in the rat hypothermia assay.
Five minutes after determining the basal body temperature via an oesophageal temperature probe, the test substance is administered (orally). A control group receives, likewise orally, only the solvent for the test substances (Cremophors EL 1-10%+distilled water). The body temperature is measured 120 and 240 minutes after oral administration. The size of the group for each dose is 5-7 animals (rats).
Rat Hypothermia Agonism Test

T1 sequence (P20272 whole entry): as above

| Compound | IC50 [1] | Fmax [2] | AUCstand ([3]; i.v. infusion, dose 0.3 mg/kg) | Cmax,stand ([3]; i.v. infusion, dose 0.3 mg/kg) | F ([3]; oral, dose 3 mg/kg, bioavailability compared with i.v. administration) | AUCstand ([3]; oral, dose 3 mg/kg) | Cmax,stand ([3]; oral, dose 3 mg/kg) | Vd ([3]; plasma, iv, i.v. infusion, dose 0.3 mg/kg, apparent volume of distribution at steady state, read-out: VSS) | half-life ([3]; plasma, iv, i.v. infusion, dose 0.3 mg/kg) | Tmax ([3]; plasma, oral, dose 3 mg/kg) | half-life ([3]; plasma, oral, dose 3 mg/kg) | minimally effective dose reducing hyperalgesia [4] | ED−1° C. (effective dose for reducing the body temperature by 1° C.) [5] |
| --- | --- | --- | --- | --- | --- | --- | --- | --- | --- | --- | --- | --- | --- |
| O=S(=O)(CCCC(F)(F)F)Oc1cccc(Oc2ccccc2OC(F)(F)F)c1 [Example 17] | 0.81 nM | 40% | – | – | – | – | – | – | – | – | – | – | – |
| O=S(=O)(CCCC(F)(F)F)Oc1cccc(Oc2cccc(C(F)(F)F)c2Cl)c1 [Example 22] | – | – | 0.307 kg·h/L | 0.5978 kg/L | 33% | 0.102 kg·h/L | 0.0198 kg/L | 4.12 L/kg | 1.6 h | 2.29 h | 2.36 h | 1 mg/kg | 10 mg/kg |
| Cc1c(Cl)cccc1Oc1cccc(OS(=O)(=O)CCCC(F)(F)F)c1 [Example 15] | – | 4% | – | – | – | – | – | – | – | – | – | – | – |
